Assay results taken from patent US20110251160A1 (priority 2008, published 2011).
Values joined by “and” are separate entries in the source; they are usually repeats but may differ in a detail not shown here. Equal values may be shown once. Read-outs that look alike come from different tables or passages of the source.

How the values were obtained:
[1] = tested on: patients with chronic atrial fibrillation; assay: PETRO study, phase 2 12-week dose finding study; assay type: in vivo, human; conditions: in vivo
Source text: Primary endpoints were bleeding events and changes in D-dimer. […] Minor bleeding was dose related.

[2] = Clinical pharmacokinetics and pharmacodynamics of dabigatran etexilate; conditions: human, plasma, oral
[3] = tested on: activated partial thromboplastin time (aPTT), ecarin clotting time, and thrombin clotting time; assay: Clotting time prolongation
[4] = in vivo; cited from earlier work
[5] = tested on: patients with atrial fibrillation at risk of stroke; conditions: for Stroke, systemic embolism, pulmonary embolism, myocardial infarction death or major bleed, Rate / Stroke, systemic embolism, pulmonary embolism, myocardial infarction death or major bleed, RR: net benefit
Source text: Median follow-up was 2.0 years and the primary outcome was stroke or systemic embolism.
Patients were recruited from 951 clinical centers in 44 countries. In brief, patients were eligible if they had atrial fibrillation documented on electrocardiogram at screening or within 6 months; and at least one of the following: prior stroke or transient ischemic attack; left ventricular ejection fraction less than 40%; New York Heart Association heart failure symptoms of Class 2 or greater within 6 months; age at least 75 years; or age at least 65 years with diabetes mellitus, hypertension or coronary artery disease.
The time in therapeutic range was calculated by the method of Rosendaal (Rosendaal F R, et al., A method to determine the optimal intensity of oral anticoagulant therapy, Thromb Haemost, 1993, 69:236-239), excluding INRs from the first week and after discontinuations. […] Concomitant use of aspirin (less than 100 mg/day) or other antiplatelet agents was allowed.
Liver function testing was performed monthly during the first year of follow-up.
The primary study outcome was stroke or systemic embolism. The primary safety outcome was major hemorrhage. Secondary outcomes were stroke, systemic embolism and death. Other outcomes were myocardial infarction, pulmonary embolism, transient ischemic attacks, and hospitalizations. The primary net benefit-risk outcome was the composite of stroke, systemic embolism, pulmonary embolism, myocardial infarction, death or major hemorrhage. Stroke was defined as sudden onset of focal neurological deficit consistent with the territory of a major cerebral artery and categorized as ischemic, hemorrhagic or unspecified. Hemorrhagic transformation of ischemic stroke was not considered as hemorrhagic stroke. Intracranial hemorrhage included hemorrhagic stroke and sub-dural or sub-arachnoid hemorrhage. Systemic embolism was an acute vascular occlusion of an extremity or organ documented by imaging, surgery or autopsy. Major bleeding was defined as a reduction in hemoglobin level of at least […] or transfusion of at least 2 units of blood or symptomatic bleeding in a critical area or organ. Life-threatening bleeding was a subset of major bleeding that included fatal bleeding, symptomatic intracranial bleeding, bleeding with hemoglobin decrease of more than […] or requiring transfusion of more than 4 units of blood or requiring inotropic agents or necessitating surgery. All other bleeding was considered minor.
All primary and secondary outcome events were blindly and doubly adjudicated. An international team of adjudicators reviewed documents in local languages after blinding; or documents were translated by a independent group and blinded centrally. All transient ischemic attacks were reviewed to ensure that strokes had not been missed. To detect possible unreported events, symptom questionnaires were regularly administered to patients, and adverse events and hospitalization reports were scrutinized for unreported primary or secondary outcomes.
If maximum of the two p-values was greater than 0.025, the minimum of the two p-values must be less than 0.0125, one-sided, to claim statistical significance. All analyses were based on intention-to-treat.

Plasma protein binding = assay type: in vitro ADME; conditions: read-out: Bound to plasma proteins
[6] = tested on: patients with atrial fibrillation
Method: PETRO-Ex began while the PETRO study was ongoing and investigators were initially kept blinded to patient treatment group until PETRO was completed. Unblinding investigators to patient treatment was possible thereafter.
Data were summarized descriptively; no hypothesis was to be tested. Events were analyzed on the basis of the treatment at onset. Incidences were reported as number of patients with events as well as normalized to 100 patient years on the respective treatment.
Patients who completed PETRO on 50 mg b.i.d. were switched to 150 mg q.d. upon entry in the PETRO-Ex study (N=93 patients). […] Patients who were down titrated to 50 mg q.d. based on a glomerular filtration rate ≦50 mL/min during PETRO were excluded from the long-term trial; patients down-titrated in other dose levels remained on the q.d. treatment at that dose.
The former is represented by the number of thromboembolic events per 100 years, the latter by the number of bleeding events per 100 years.

[7] = individual patients with LFT abnormalities, one table line per patient

For [H]/N=C(/N)c1ccc(NCc2nc3cc(C(=O)N(CCC(=O)O)c4ccccn4)ccc3n2C)cc1 [Dabigatran], the “Change in D-dimer levels” value [1] was “comparable to warfarin”, the half-life [2] was 12 to 17 h and the “Prolongation of aPTT, ecarin clotting time, and thrombin clotting time” value [3] was “dose dependent prolongation”. For the same compound, the Serum half-life [4] was 12 to 17 h, the “All Death, Rate” value ([5]; Dabigatran 110 mg b.i.d.) was 3.74 /100 Person Years and the “Disabling or Fatal Stroke Modified Rankin 3-6, Rate” value ([5]; Dabigatran 110 mg b.i.d.) was 0.95 /100 Person Years. The “First Hospitalization, Rate” value ([5]; Dabigatran 110 mg b.i.d.) was 25.1 /100 Person Years, the “Myocardial Infarction, Rate” value ([5]; Dabigatran 110 mg b.i.d.) was 0.73 /100 Person Years and the “Non-disabling Stroke Modified Rankin 0-2, Rate” value ([5]; Dabigatran 110 mg b.i.d.) was 0.51 /100 Person Years. The “Pulmonary embolism, Rate” value ([5]; Dabigatran 110 mg b.i.d.) was 0.12 /100 Person Years, the “Stroke or systemic embolism, Rate” value ([5]; Dabigatran 110 mg b.i.d.) was 1.55 /100 Person Years and the “Stroke, Hemorrhagic, Rate” value ([5]; Dabigatran 110 mg b.i.d.) was 0.12 /100 Person Years. The “Stroke, Rate” value ([5]; Dabigatran 110 mg b.i.d.) was 1.45 /100 Person Years, the “Vascular Death, Rate” value ([5]; Dabigatran 110 mg b.i.d.) was 2.42 /100 Person Years and the “All Death, RR” value ([5]; Dabigatran 110 mg vs. Warfarin) was 0.90. For the same compound, the “Disabling or Fatal Stroke Modified Rankin 3-6, RR” value ([5]; Dabigatran 110 mg vs. Warfarin) was 0.94, the “First Hospitalization, RR” value ([5]; Dabigatran 110 mg vs. Warfarin) was 0.92 and the “Myocardial Infarction, RR” value ([5]; Dabigatran 110 mg vs. Warfarin) was 1.35. The “Non-disabling Stroke Modified Rankin 0-2, RR” value ([5]; Dabigatran 110 mg vs. Warfarin) was 0.87, the “Pulmonary embolism, RR” value ([5]; Dabigatran 110 mg vs. Warfarin) was 1.26 and the “Stroke or systemic embolism, RR” value ([5]; Dabigatran 110 mg vs. Warfarin) was 0.91. The “Stroke, Hemorrhagic, RR” value ([5]; Dabigatran 110 mg vs. Warfarin) was 0.31, the “Stroke, Ischemic or Unspecified, RR” value ([5]; Dabigatran 110 mg vs. Warfarin) was 1.12 and the “Stroke, RR” value ([5]; Dabigatran 110 mg vs. Warfarin) was 0.92. For the same compound, the “Vascular Death, RR” value ([5]; Dabigatran 110 mg vs. Warfarin) was 0.90, the “All Death, Rate” value ([5]; Dabigatran 150 mg b.i.d.) was 3.63 /100 Person Years and the “Disabling or Fatal Stroke Modified Rankin 3-6, Rate” value ([5]; Dabigatran 150 mg b.i.d.) was 0.67 /100 Person Years. The “First Hospitalization, Rate” value ([5]; Dabigatran 150 mg b.i.d.) was 26.7 /100 Person Years, the “Myocardial Infarction, Rate” value ([5]; Dabigatran 150 mg b.i.d.) was 0.74 /100 Person Years and the “Non-disabling Stroke Modified Rankin 0-2, Rate” value ([5]; Dabigatran 150 mg b.i.d.) was 0.36 /100 Person Years. For the same compound, the “Pulmonary embolism, Rate” value ([5]; Dabigatran 150 mg b.i.d.) was 0.15 /100 Person Years, the “Stroke or systemic embolism, Rate” value ([5]; Dabigatran 150 mg b.i.d.) was 1.11 /100 Person Years and the “Stroke, Hemorrhagic, Rate” value ([5]; Dabigatran 150 mg b.i.d.) was 0.10 /100 Person Years. For the same compound, the “Stroke, Ischemic or Unspecified, Rate” value ([5]; Dabigatran 150 mg b.i.d.) was 0.92 /100 Person Years, the “Stroke, Rate” value ([5]; Dabigatran 150 mg b.i.d.) was 1.01 /100 Person Years and the “Vascular Death, Rate” value ([5]; Dabigatran 150 mg b.i.d.) was 2.27 /100 Person Years. The “All Death, RR” value ([5]; Dabigatran 150 mg vs. 110 mg) was 0.97, the “Disabling or Fatal Stroke Modified Rankin 3-6, RR” value ([5]; Dabigatran 150 mg vs. 110 mg) was 0.70 and the “First Hospitalization, RR” value ([5]; Dabigatran 150 mg vs. 110 mg) was 1.06. The “Myocardial Infarction, RR” value ([5]; Dabigatran 150 mg vs. 110 mg) was 1.02, the “Non-disabling Stroke Modified Rankin 0-2, RR” value ([5]; Dabigatran 150 mg vs. 110 mg) was 0.71 and the “Pulmonary embolism, RR” value ([5]; Dabigatran 150 mg vs. 110 mg) was 1.27. For the same compound, the “Stroke or systemic embolism, RR” value ([5]; Dabigatran 150 mg vs. 110 mg) was 0.72, the “Stroke, Hemorrhagic, RR” value ([5]; Dabigatran 150 mg vs. 110 mg) was 0.85 and the “Stroke, Ischemic or Unspecified, RR” value ([5]; Dabigatran 150 mg vs. 110 mg) was 0.68. For the same compound, the “Stroke, RR” value ([5]; Dabigatran 150 mg vs. 110 mg) was 0.70, the “Vascular Death, RR” value ([5]; Dabigatran 150 mg vs. 110 mg) was 0.94 and the “All Death, RR” value ([5]; Dabigatran 150 mg vs. Warfarin) was 0.88. The “Disabling or Fatal Stroke Modified Rankin 3-6, RR” value ([5]; Dabigatran 150 mg vs. Warfarin) was 0.66, the “First Hospitalization, RR” value ([5]; Dabigatran 150 mg vs. Warfarin) was 0.97 and the “Myocardial Infarction, RR” value ([5]; Dabigatran 150 mg vs. Warfarin) was 1.38. For the same compound, the “Non-disabling Stroke Modified Rankin 0-2, RR” value ([5]; Dabigatran 150 mg vs. Warfarin) was 0.62, the “Pulmonary embolism, RR” value ([5]; Dabigatran 150 mg vs. Warfarin) was 1.61 and the “Stroke or systemic embolism, RR” value ([5]; Dabigatran 150 mg vs. Warfarin) was 0.66. The “Stroke, Hemorrhagic, RR” value ([5]; Dabigatran 150 mg vs. Warfarin) was 0.26, the “Stroke, Ischemic or Unspecified, RR” value ([5]; Dabigatran 150 mg vs. Warfarin) was 0.76 and the “Stroke, RR” value ([5]; Dabigatran 150 mg vs. Warfarin) was 0.64. For the same compound, the “Vascular Death, RR” value ([5]; Dabigatran 150 mg vs. Warfarin) was 0.84, the “Mortality rate, death from any cause” value ([5]; dabigatran 110 mg twice daily) was 3.74 % per year and the “Rate of hemorrhagic stroke” value ([5]; dabigatran 110 mg twice daily) was 0.12 % per year. For the same compound, the “Rate of myocardial infarction” value ([5]; dabigatran 110 mg twice daily) was 0.73 % per year, the “Rate of net benefit-risk outcome (major vascular events, major bleeding and death)” value ([5]; dabigatran 110 mg twice daily) was 7.37 % per year and the “Rate of the primary outcome, stroke or systemic embolism” value ([5]; dabigatran 110 mg twice daily) was 1.55 % per year. For the same compound, the “Mortality rate, death from any cause” value ([5]; dabigatran 150 mg twice daily) was 3.63 % per year, the “Rate of hemorrhagic stroke” value ([5]; dabigatran 150 mg twice daily) was 0.10 % per year and the “Rate of myocardial infarction” value ([5]; dabigatran 150 mg twice daily) was 0.74 % per year. The “Rate of net benefit-risk outcome (major vascular events, major bleeding and death)” value ([5]; dabigatran 150 mg twice daily) was 7.22 % per year, the “Rate of the primary outcome, stroke or systemic embolism” value ([5]; dabigatran 150 mg twice daily) was 1.11 % per year and the Hepatotoxicity ([5]; human, in vivo) was “no evidence of hepatotoxicity”. The “Stroke, systemic embolism, pulmonary embolism, myocardial infarction death or major bleed, Rate” value ([5]; Dabigatran 110 mg b.i.d.) was 7.37 /100 Person Years, the “Stroke, systemic embolism, pulmonary embolism, myocardial infarction death or major bleed, RR” value (“Stroke, systemic embolism … RR” for short) ([5]; Dabigatran 110 mg vs. Warfarin) was 0.92 and the “Stroke, systemic embolism, pulmonary embolism, myocardial infarction death or major bleed, Rate” value ([5]; Dabigatran 150 mg b.i.d.) was 7.22 /100 Person Years. The “Stroke, systemic embolism … RR” value ([5]; Dabigatran 150 mg vs. 110 mg) was 0.98, the “Stroke, systemic embolism … RR” value ([5]; Dabigatran 150 mg vs. Warfarin) was 0.90 and the fraction unbound (Plasma protein binding) was 0.65 to 0.75. The “Fatal major bleeds, number” value ([6]; 150 mg b.i.d.) was 4, the “Fatal major bleeds, number” value ([6]; 300 mg q.d.) was 1 and the Fatal bleeding events ([6]; all doses) was 0.5 % per year. For the same compound, the “Fatal major bleeds, number” value ([6]; all doses) was “five”, the Intracranial bleed rate ([6]; all doses) was 0.4 % per year and the “LFT abnormality ALT/ULN” value [6, 7] was >5x xULN (4×) and >5x^# xULN (2×) and >3x xULN (5×) and >3x^# xULN. The “LFT abnormality AST/ULN” value [6, 7] was >5x^# xULN (4×) and >5x xULN (4×) and >3x xULN (5×).
